Measured values published in PubChem BioAssay AID651974 (The Scripps Research Institute Molecular Screening Center, 2013).
Calls of active or inactive are those of the source. How the calls were made is not given here.

Experiment: compounds lowering VP16-driven luciferase output – cell-based, luminescence, dose response, counter-screen for LRH-1 inverse agonist project, late-stage follow-up (AID 651974)
Conditions: HEK293 cells transfected with Gal4-VP16 and pGL4.31 luciferase reporter

## Cc1cc(C)c2nc(NC(=O)c3ccc([N+](=O)[O-])o3)sc2c1
  IC50: > 35.9 µM (inactive)

## Cc1ccn2c(=O)nc(SCC(=O)Nc3ccc4c(c3)OCCO4)nc2c1
  IC50: > 35.9 µM (inactive)

## COc1ccc(C2(C)NC(=O)N(CC(=O)NCCC3=CCCCC3)C2=O)cc1OC (stereo not given)
  IC50: > 35.9 µM (inactive)

## O=C(Nc1ccc(Br)cn1)c1ccc([N+](=O)[O-])o1
  IC50: > 35.9 µM (inactive)

## O=C(COC(=O)c1ccc(=O)n(Cc2ccccc2)n1)Nc1ccc2c(c1)OCCO2
  IC50: > 35.9 µM (inactive)

## CCOc1ccc(OCCN2C(=O)NC(Cc3c[nH]c4ccccc34)C2=O)cc1 (stereo not given)
  IC50: > 35.9 µM (inactive)

## COC(=O)c1ccc(NC(=O)CSc2nc3ncccc3[nH]2)cc1
  IC50: > 35.9 µM (inactive)

## O=c1[nH]c(Nc2ccc3c(c2)OCCO3)nnc1Cc1ccccc1
  IC50: > 35.9 µM (inactive)

## COC(=O)c1ccc(NC(=O)CN2CCN(c3ccc(Cl)cc3)CC2)cc1
  IC50: > 35.9 µM (inactive)

## O=C(CSc1nnc(CNC(=O)c2ccccc2F)o1)Nc1ccc2c(c1)OCCO2
  IC50: > 35.9 µM (inactive)

## CCOc1ccc(NC(=O)CSc2nnc(C(C)C)n2CC)cc1
  IC50: > 35.9 µM (inactive)

## COc1ccc(NC(=O)COC(=O)c2cc(S(=O)(=O)N3CCCC3)ccc2O)cc1
  IC50: > 35.9 µM (inactive)

## COc1ccc(CCNC(=O)CSc2ccc(NC(C)=O)cc2)cc1OC
  IC50: > 35.9 µM (inactive)

## CCc1cc(=O)[nH]c(SCC(=O)Nc2ccc3c(c2)OCCO3)n1
  IC50: > 35.9 µM (inactive)

## O=C(NCC1CCCO1)c1ccc(NC(=O)c2cccc([N+](=O)[O-])c2)cc1 (stereo not given)
  IC50: > 35.9 µM (inactive)

## Cc1ccc(NC(=O)CSc2nc3[nH]c(=O)cc(O)c3s2)c(Br)c1
  IC50: > 35.9 µM (inactive)

## CCOc1ccc(OCCC(=O)OCC(=O)Nc2ccc3c(c2)OCCO3)cc1
  IC50: > 35.9 µM (inactive)

## O=C(CN1C(=O)CCC1=O)Nc1ccc(Br)cc1
  IC50: > 35.9 µM (inactive)

## COCC(=O)NC1CCN(CC(=O)Nc2ccc(OC)cc2[N+](=O)[O-])CC1
  IC50: > 35.9 µM (inactive)

## CCCc1cc(=O)oc2cc(OCC(=O)NCCc3ccc(S(N)(=O)=O)cc3)ccc12
  IC50: > 35.9 µM (inactive)

## CC(=O)Nc1ccc(N=c2cc([N+](=O)[O-])cc(Cl)n2O)cc1
  IC50: > 35.9 µM (inactive)

## Cc1ccc(NC(=O)COC(=O)C(NS(=O)(=O)c2ccc(Cl)cc2)C(C)O)cc1C (stereo not given)
  IC50: > 35.9 µM (inactive)

## CCOc1ccc(NC(=O)CSc2nncc(=O)n2N)cc1
  IC50: > 35.9 µM (inactive)

## COc1ccc(NC(=O)CSc2ccc3c(c2)OCCO3)cc1
  IC50: > 35.9 µM (inactive)

## Cc1cc(Br)ccc1NC(=O)CN1C(=O)C2CC=CCC2C1=O (stereo not given)
  IC50: > 35.9 µM (inactive)

## COc1ccc(NS(=O)(=O)c2ccc(OCC(=O)N3CCN(C)CC3)cc2)cc1Cl
  IC50: > 35.9 µM (inactive)

## COc1ccc(NC(=O)COC(=O)c2c(-c3ccccc3)noc2C)cc1
  IC50: > 35.9 µM (inactive)

## COc1ccc(NC(=O)CS(=O)(=O)c2ccc(C)cc2)c(OC)c1
  IC50: > 35.9 µM (inactive)

## COc1ccccc1Oc1nnnn1-c1ccc(C(N)=O)cc1
  IC50: > 35.9 µM (inactive)

## COc1ccc(CCNC(=O)COC(=O)C23CC4CC(CC(C4)C2)C3)cc1
  IC50: > 35.9 µM (inactive)

## CCc1cc(=O)oc2c(C)c(OCC(=O)NCCN3CCOCC3)ccc12
  IC50: > 35.9 µM (inactive)

## CCCc1cc(=O)oc2cc(C)cc(OCC(=O)NC3CC3)c12
  IC50: > 35.9 µM (inactive)

## CCOc1ccc(NC(=O)COC(=O)COc2cccc3c2OC(C)(C)C3)cc1
  IC50: > 35.9 µM (inactive)

## CCCc1cc(=O)oc2c(C)c(OCC(=O)NCCN3CCOCC3)ccc12
  IC50: > 35.9 µM (inactive)

## O=C(COC(=O)c1ccc(Br)cc1)Nc1ccccc1Br
  IC50: > 35.9 µM (inactive)

## COc1ccc(-n2c(N)c(C(=O)NCc3cccnc3)sc2=S)cc1
  IC50: > 35.9 µM (inactive)

## O=C1CCCN2N=C(SCC(=O)Nc3ccc(Br)cc3)SC2=N1
  IC50: > 35.9 µM (inactive)

## COCCn1c(C)cc(/C=C(\C#N)C(=O)OCC(=O)Nc2ccc(S(N)(=O)=O)cc2)c1C
  IC50: > 35.9 µM (inactive)

## CCOc1ccc(NC(=O)CN2CCN(CC(=O)Nc3ccc(OC)cc3)CC2)cc1
  IC50: > 35.9 µM (inactive)

## Cc1sc(NC(=O)C(C)C)c(C(=O)Nc2ccccc2)c1C
  IC50: > 35.9 µM (inactive)

## CCn1c(SCC(=O)Nc2ccc(Cl)cc2)nnc1C1CC1
  IC50: > 35.9 µM (inactive)

## CCCc1nnc(SCC(=O)Nc2ccc(C(=O)OCC)cc2)o1
  IC50: > 35.9 µM (inactive)

## COc1ccc(CCNC(=O)CSc2nc3[nH]c(=O)cc(O)c3s2)cc1
  IC50: > 35.9 µM (inactive)

## O=C(COC(=O)CCN1C(=O)C2CC=CCC2C1=O)NCCc1ccc(F)cc1 (stereo not given)
  IC50: > 35.9 µM (inactive)

## CCCN(CC(=O)Nc1ccc(C(C)=O)cc1)CC(=O)Nc1ccccc1C
  IC50: > 35.9 µM (inactive)

## CC(=O)Nc1ccc(NC(=O)CSc2ccc(-c3ccco3)nn2)cc1
  IC50: > 35.9 µM (inactive)

## CCCc1cc(=O)oc2cc(OCC(=O)NCc3ccccn3)ccc12
  IC50: > 35.9 µM (inactive)

## CCOc1ccc(NC(=O)COC(=O)CC2CCCCC2)cc1
  IC50: > 35.9 µM (inactive)

## Cc1ccc(NC(=O)COC(=O)C(NS(=O)(=O)c2ccc(Cl)cc2)C(C)O)c(Br)c1 (stereo not given)
  IC50: > 35.9 µM (inactive)

## COC(=O)c1ccc(CNC(=O)COC(=O)c2cc(Cl)nc(Cl)c2)cc1
  IC50: > 35.9 µM (inactive)

## O=C(Nc1ccccc1)c1oc2ccccc2c1NC(=O)C1CC1
  IC50: > 35.9 µM (inactive)

## CCc1c(C)nc(SCC(=O)Nc2ccc3c(c2)OCCO3)[nH]c1=O
  IC50: > 35.9 µM (inactive)

## COC(=O)c1ccc(NC(=O)COc2cccc(-n3cnnn3)c2)cc1
  IC50: > 35.9 µM (inactive)

## CCOc1ccc(NC(=O)CSc2nccn(-c3ccc4c(c3)OCCO4)c2=O)cc1
  IC50: > 35.9 µM (inactive)

## CCOc1ccc(NC(=O)CSc2nc3[nH]ncc3c(=O)[nH]2)cc1
  IC50: > 35.9 µM (inactive)

## O=C(NCc1ccco1)c1nn(-c2ccccc2)c(=O)c2ccccc12
  IC50: > 35.9 µM (inactive)

## O=C(COc1ccc2c3c(c(=O)oc2c1)CCCC3)NCc1ccccn1
  IC50: > 35.9 µM (inactive)

## Cc1ccc(NC(=O)COC(=O)c2cc(=O)c3ccccc3o2)c(Br)c1
  IC50: > 35.9 µM (inactive)

## Cc1cccc(NC(=O)COC(=O)CN2C(=O)c3ccccc3C2=O)c1C
  IC50: > 35.9 µM (inactive)

## COC(=O)c1ccc(NC(=O)CSc2nncn2-c2cccnc2)cc1
  IC50: > 35.9 µM (inactive)

## COC(=O)c1ccc(NC(=O)CSc2nn3c(=O)c(C)nnc3s2)cc1
  IC50: > 35.9 µM (inactive)

## COc1ccc(CC(NC(C)=O)C(=O)NC2CCN(c3nnnn3-c3ccccc3)CC2)cc1 (stereo not given)
  IC50: > 35.9 µM (inactive)

## N#CCSc1ccccc1NC(=O)CN1C(=O)C2CC=CCC2C1=O (stereo not given)
  IC50: > 35.9 µM (inactive)

## CC(=O)c1ccc(NC(=O)C(C)O/N=C(\N)c2ccccc2)cc1 (stereo not given)
  IC50: > 35.9 µM (inactive)

## Cc1cccc(NC(=O)COC(=O)Cc2cccs2)c1C
  IC50: > 35.9 µM (inactive)

## COc1ccc(CCNC(=O)COC(=O)c2cccn2C)cc1
  IC50: > 35.9 µM (inactive)

## CCCc1cc(=O)oc2c(C)c(OCC(=O)NCCCn3ccnc3)ccc12
  IC50: > 35.9 µM (inactive)

## COc1ccc(CCNC(=O)COC(=O)Cc2ccccc2[N+](=O)[O-])cc1
  IC50: > 35.9 µM (inactive)

## CCCc1cc(=O)oc2c(C)c(OCC(=O)NC3CC(C)(C)NC(C)(C)C3)ccc12
  IC50: > 35.9 µM (inactive)

## COc1ccc(NC(=O)CSc2nnc3ccc(-c4cccnc4)nn23)cc1OC
  IC50: > 35.9 µM (inactive)

## Cc1nn(CC(=O)Nc2ccc3c(c2)OCCO3)c(C)c1[N+](=O)[O-]
  IC50: > 35.9 µM (inactive)

## O=C(Nc1ccc(S(=O)(=O)N2CCOCC2)cc1)c1cccc([N+](=O)[O-])c1
  IC50: > 35.9 µM (inactive)

## O=C(COC(=O)c1ccc[n+]([O-])c1)Nc1ccc([N+](=O)[O-])cc1Cl
  IC50: > 35.9 µM (inactive)

## COc1ccc(NC(=O)CSc2sc3c(O)cc(=O)[nH]c3c2C#N)c(OC)c1
  IC50: > 35.9 µM (inactive)

## Cc1cc(OCC(=O)Nc2nccs2)c2c(C)cc(=O)oc2c1
  IC50: > 35.9 µM (inactive)

## CC(=O)Nc1ncc(Cc2cc(Cl)ccc2Cl)s1
  IC50: > 35.9 µM (inactive)

## COc1ccc(NC(=O)CN2C(=O)NC3(CCCC3)C2=O)cc1
  IC50: > 35.9 µM (inactive)

## COC(=O)c1ccc(NC(=O)CSc2ccc(-c3ccccn3)nn2)cc1
  IC50: > 35.9 µM (inactive)

## Cc1ccc2cccc(OCC(=O)NCCC3=CCCCC3)c2n1
  IC50: > 35.9 µM (inactive)

## Cc1cc(C)c2sc(NC(=O)c3ccc([N+](=O)[O-])o3)nc2c1
  IC50: > 35.9 µM (inactive)

## Cc1cc(=O)oc2c(C)c(OCC(=O)NC3CC(C)(C)NC(C)(C)C3)ccc12
  IC50: > 35.9 µM (inactive)

## O=C(CSc1nnc(CNC(=O)c2c(F)cccc2F)o1)Nc1ccc2c(c1)OCCO2
  IC50: > 35.9 µM (inactive)

## Cc1ccc(NC(=O)CSc2sc3c(O)cc(=O)[nH]c3c2C#N)c(F)c1
  IC50: > 35.9 µM (inactive)

## O=C(OCC(=O)N1CCN(C(=O)COC(=O)c2ccc(O)cc2O)CC1)c1ccc(O)cc1O
  IC50: > 35.9 µM (inactive)

## CC1SC(C)C(=O)N(CC(=O)Nc2ccc3c(c2)OCO3)C1=O (stereo not given)
  IC50: > 35.9 µM (inactive)

## Cc1cc(Br)ccc1NC(=O)CN1C(=O)CCC1=O
  IC50: > 35.9 µM (inactive)

## COc1ccc(CCNC(=O)CSc2nn3c(=O)c(C)nnc3s2)cc1OC
  IC50: > 35.9 µM (inactive)

## O=C(COc1ccc2c3c(c(=O)oc2c1)CCC3)NCc1ccncc1
  IC50: > 35.9 µM (inactive)

## COc1ccc(NC(=O)CSc2nc(N)c(-c3ccccc3)c(=O)[nH]2)cc1
  IC50: > 35.9 µM (inactive)

## COc1ccc(CCNC(=O)COC(=O)c2cc(Cl)nc(Cl)c2)cc1
  IC50: > 35.9 µM (inactive)

## O=C(Nc1nc2c(Cl)cccc2s1)c1ccc([N+](=O)[O-])o1
  IC50: > 35.9 µM (inactive)

## Cc1ccc(-c2csc(NC(=O)c3ccc([N+](=O)[O-])o3)n2)cc1
  IC50: > 35.9 µM (inactive)

## CN1CCN(c2ccc(S(=O)(=O)N3CCCCC3)cc2NC(=O)COc2ccc([N+](=O)[O-])cc2)CC1
  IC50: > 35.9 µM (inactive)

## CC(=O)c1ccc(OC(C)C(=O)OCC(=O)NCCc2ccccc2)cc1 (stereo not given)
  IC50: > 35.9 µM (inactive)

## CCOc1ccc(NC(=O)COC(=O)c2ccc3c(c2)OCCO3)cc1
  IC50: > 35.9 µM (inactive)
